The values below are quoted from earlier work in PMC7852567, “A first-in-human phase 1 and pharmacological study of TAS-119, a novel selective Aurora A kinase inhibitor in patients with advanced solid tumours” (British Journal of Cancer, 2020).

The structures appear in SMILES notation.

This data set concerns ROS. Particulars: cited from earlier work.

On to `COc1cc(Nc2ncc3c(n2)-c2ccc(Cl)cc2C(c2c(F)cccc2OC)=NC3)ccc1C(=O)O` [Alisertib], for which the “mean inhibition of ROS” value is given as 80%.
